Counter-ions that a name gives are not always drawn.
What was measured:
[1] = test system: virus Herpès simplex type I; experiment: In vivo cutaneous HSV I infection in guinea pigs, local application; set-up: species or system cobayes albinos (Dunkin-Hartley, IFFA-CREDO); details: for infection herpétique cutanée / lésions cutanées: cobayes, application locale deux fois par jour pendant 3 jours, observations jours 5 à 8; for % moyen d'activité: moyenne entre le jour 5 et le jour 8
Experimental: L'expérimentation a été réalisée en application locale sur des cobayes albinos (Dunkin-Hartley, IFFA-CREDO) auxquels on a préalablement inoculé par scarification le virus Herpès simplex type I. Sur ces scarifications, on a appliqué 0,1 ml d'une solution de virus HSV I titrant 10 000 DI50 pour 100 µl. Un flanc des animaux a servi de témoin. Le traitement a été effectué deux fois par jour pendant 3 jours, la première application ayant lieu 18 h après l'inoculation.
Les paramètres retenus pour déterminer la gravité des lésions cutanées sont : érythèmes, indurations, nombre et taille des vésicules, aires d'infection et présence ou absence de virus. Les observations sont réalisées 5, 6, 7 et 8 jours après l'inoculation.

[2] = cited from earlier work
[3] = test system: virus HSV I; experiment: Virucidal activity by contact of the virus with the compounds, infra-cytotoxic doses; type: cell-based; details: doses infra-cytotoxiques, "-" = absence d'activité
Experimental: (§1) Dans un premier temps, on a donc déterminé l'activité virucide des différents composés testés par mise en contact du virus avec ces composés. Puis on a déterminé l'activité anti-virale des composés testés en inoculant le virus (sous la forme d'une suspension préalablement diluée dans du milieu de Hanks de manière à avoir une concentration en virus de 100 DE50 pour 10 µl de suspension) à une culture de fibroblastes de poumon embryonnaire (cellules commercialisées par la société Bio-Mérieux sous la référence MCR5), puis en traitant la culture cellulaire, inoculée par le virus, par les composés à tester, dilués également dans du milieu de Hanks. Les plaques de cultures cellulaires ont ensuite été observées au microscope inversé après 24h et 48h d'inoculation, ainsi que des cultures témoins non-inoculées et des virus témoins incubés sans composés. Les résultats sont rassemblés dans le tableau suivant: […]

[4] = test system: virus HSV I; experiment: Anti-viral activity in HSV I-inoculated embryonic lung fibroblast culture; type: cell-based; details: HSV I 100 DE50 pour 10 µl, fibroblastes de poumon embryonnaire MCR5, observation 24h et 48h; "-" = absence d'activité
Experimental: as §1

[5] = test system: infections herpétiques buccales et vulvaires; experiment: Human clinical use in buccal and vulvar herpetic infections; type: in vivo, humaine
[6] = test system: zonas; experiment: Human clinical use in zona; type: in vivo; details: clinique humaine

| Molecule | infection herpétique cutanée / lésions cutanées [1] | % moyen d'activité ([1]; concentration 0,2 %) | solubilité dans l'alcool [2] | solubilité dans l'eau [2] | solubilité dans l'éther [2] | % moyen d'activité ([1]; concentration 1,0 %) | Concentrations minimales activité virucide [3] [µg/mL] | Concentrations minimales activité anti-virale [4] [µg/mL] | % moyen d'activité ([1]; concentration 2,0 %) | % moyen d'activité ([1]; concentration 4,0 %) | résultats en clinique humaine [5] | éruptions vésiculeuses et névralgies des territoires cutanés infectés [6] |
| --- | --- | --- | --- | --- | --- | --- | --- | --- | --- | --- | --- | --- |
| Oc1cccc2cccnc12 [8-HQS, sulfate d'hydroxy-8 quinoléine] | aucun effet | 0,0% | faiblement soluble | soluble | insoluble |  |  |  |  |  |  |  |
| Nc1nc2c(ncn2COCCO)c(=O)[nH]1 [Acyclovir, 2-amino-1,9-dihydro-9-[(2-hydroxyethoxy)methyl]-6H-purin-6-one] |  |  |  |  |  | 55,2% |  |  |  |  |  |  |
| acriflavine [ACF] | réduisent significativement | 0,0% | partiellement soluble | soluble | pratiquement insoluble | 44,5% | 1 | 2 | 81,5% | 95,2% | résultats favorables | réduit significativement |

Source: patent EP0649656B1 (priority 1993, dated 1995)
